{"source": "patent US7067320B2", "about": "“Sensor for luminescense-optical determination of an analyte” (Roche Diagnostics Operations, Inc., priority 2000, dated 2006)", "origin": "cited, not measured here"}
{"details": "not given"}
{"molecule": "O=S1(=O)OC(c2cc(Br)c(O)c(Br)c2)(c2cc(Br)c(O)c(Br)c2)c2ccccc21", "note": "[Bromophenol blue]", "pKa": 3.8}
{"molecule": "Cc1c(C2(c3cc(C(C)C)c(O)c(Br)c3C)OS(=O)(=O)c3ccccc32)cc(C(C)C)c(O)c1Br", "note": "[Bromothymol blue]", "pKa": 6.7}
{"molecule": "Cc1ccc(O)c(N=Nc2c(O)cc(S(=O)(=O)O)c3ccccc23)c1", "note": "[Calmagit]", "pKa": 8.0}
{"molecule": "O=C1OC(c2ccc(O)c3ccccc23)(c2ccc(O)c3ccccc23)c2ccccc21", "note": "[Naphthol-phthalein]", "pKa": 6.7}
{"molecule": "O=C1C=CC(=Nc2ccc(O)cc2)C=C1Cl", "note": "[o-chlorophenol-indophenol]", "pKa": 7.1}
{"molecule": "Dibromoxylenol blue", "pKa": 7.6}
{"details": "second value printed in the same cell"}
{"molecule": "O=C1OC(c2ccc(O)c3ccccc23)(c2ccc(O)c3ccccc23)c2ccccc21", "note": "[Naphthol-phthalein]", "pKa": 7.9}
